Assay results taken from PubChem BioAssay AID394.

Target: Tyrosine-protein phosphatase non-receptor type 14 (Homo sapiens) (UniProt Q15678)
Assay: PTPN14 phosphatase ligand binding by thermal shift, biophysical, human, DSF, SYPRO orange (AID 394)
Conditions: recombinant PTPN14, DSF thermal shift, at 10 µM, protein 2 µM, buffer 10 mM HEPES, pH 7.5, NaCl 150 mM, stronger effect = higher value

Tyrosine-protein phosphatase non-receptor type 14 (Homo sapiens), sequence (Q15678 whole entry, looked up): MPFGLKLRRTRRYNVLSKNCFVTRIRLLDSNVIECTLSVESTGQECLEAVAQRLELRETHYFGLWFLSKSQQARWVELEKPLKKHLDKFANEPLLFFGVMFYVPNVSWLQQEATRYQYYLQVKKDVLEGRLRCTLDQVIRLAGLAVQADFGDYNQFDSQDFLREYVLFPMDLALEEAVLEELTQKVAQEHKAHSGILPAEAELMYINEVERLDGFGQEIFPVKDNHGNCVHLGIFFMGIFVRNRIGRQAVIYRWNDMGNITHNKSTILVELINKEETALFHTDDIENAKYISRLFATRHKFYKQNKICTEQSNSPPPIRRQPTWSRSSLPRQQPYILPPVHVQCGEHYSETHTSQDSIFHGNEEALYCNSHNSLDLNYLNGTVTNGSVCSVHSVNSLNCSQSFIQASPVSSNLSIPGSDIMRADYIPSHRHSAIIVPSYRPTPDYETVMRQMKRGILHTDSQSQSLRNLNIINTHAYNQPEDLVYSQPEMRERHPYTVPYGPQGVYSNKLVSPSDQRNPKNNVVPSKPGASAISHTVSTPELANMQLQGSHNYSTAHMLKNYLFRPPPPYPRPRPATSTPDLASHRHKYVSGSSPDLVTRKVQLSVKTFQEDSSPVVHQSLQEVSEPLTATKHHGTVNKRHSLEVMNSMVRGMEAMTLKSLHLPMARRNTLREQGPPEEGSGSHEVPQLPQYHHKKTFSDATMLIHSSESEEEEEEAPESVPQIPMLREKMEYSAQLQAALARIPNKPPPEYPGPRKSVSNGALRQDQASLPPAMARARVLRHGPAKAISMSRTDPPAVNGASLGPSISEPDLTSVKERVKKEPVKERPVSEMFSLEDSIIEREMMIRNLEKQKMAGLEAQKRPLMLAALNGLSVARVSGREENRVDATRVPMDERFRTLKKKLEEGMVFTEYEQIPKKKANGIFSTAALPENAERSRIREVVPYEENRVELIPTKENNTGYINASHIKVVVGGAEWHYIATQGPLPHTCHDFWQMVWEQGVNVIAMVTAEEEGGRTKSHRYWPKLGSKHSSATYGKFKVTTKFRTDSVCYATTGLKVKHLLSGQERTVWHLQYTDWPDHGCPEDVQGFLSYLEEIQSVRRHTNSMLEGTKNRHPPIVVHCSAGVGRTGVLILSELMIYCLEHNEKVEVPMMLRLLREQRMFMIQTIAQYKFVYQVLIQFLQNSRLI

| Compound | Tm shift | Tm shift (DTT 2000 µM, with dithiothreitol) |
| --- | --- | --- |
| O=C(O)c1ccc([O-])cn1.OO.OO.[K+].[K+].[O]=[V] | 4.45 Celsius | – |
| O=C([O-])c1ccccn1.OO.OO.[K+].[K+].[O]=[V] | – | 2.3 Celsius |
| OO.OO.[K+].[O]=[V].c1ccc(-c2ccccn2)nc1 | 4.81 Celsius | – |
| O=C(O)c1ccc(O)cn1.OO.[O]=[V] | 5.95 Celsius | – |
| OO.OO.[K+].[O]=[V].c1cnc2c(c1)ccc1cccnc12 | 5.88 Celsius | – |
